From patent US20090176794A1, “1H-INDOL-1-YL-UREA COMPOUNDS” (LES LABORATOIRES SERVIER, priority 2008, published 2009)

Legend:
[1] = system: tyrosine hydroxylase (TH) protein in the locus coeruleus (LC); experiment: Induction of tyrosine hydroxylase in the locus coeruleus after i.p. injection; type: in vivo; details: i.p. 20 mg/kg, three days after single injection, Balb/C mouse; for amount of TH in LC section 1, relative to the mean value of the control group: LC section 1 (anterior-to-posterior)
Excerpt: A search is made among the compounds for those which are capable of bringing about an increase in the tyrosine hydroxylase (TH) protein in the locus coeruleus (LC) of the brain of the Balb/C mouse.
The animals used are male mice of the pure Balb/C strain (Charles River Laboratories) aged from 7 to 8 weeks at the time of treatment.
The mice are given a single injection, by the intraperitoneal route, of the compound under test, dissolved in 0.04M HCl solution (corresponding control: […]), if the compound is sufficiently soluble, or in olive oil 90%/DMSO 10% (corresponding control: olive oil 90%/DMSO 10%) for compounds that are insoluble in an aqueous medium.
Three days after the injection of each compound, all the animals are sacrificed by decapitation. The brains are removed and then frozen in liquid nitrogen and stored at −80° C.
Coronal sections 8 microns thick are taken along the posterior-anterior axis of the LC and fixed. The sections are transferred onto Immobilon-P membranes. The TH is measured by immunodetection and image analysis.

[2] = Predicted metabolic stability, mouse hepatic microsomes; type: in vitro ADME; details: mouse hepatic microsomes 0.33 mg prot/ml; compound 10^-7 M; NADPH; 0-60 min
Experimental: (§1) The predicted metabolic stability is tested by incubation of the compounds at a concentration of 10^−7M in the presence of mouse, rat or human hepatic microsomes (0.33 mg of prot/ml). After addition of NADPH (nicotinamide adenine dinucleotide phosphate, reduced form), samples are taken at 0, 5, 15, 30 and 60 minutes. The enzymatic reaction is stopped using methanol (V/V). The protein is precipitated by centrifugation and the supernatant is analysed by LC-MS-MS.

[3] = Predicted metabolic stability, rat hepatic microsomes; type: in vitro ADME; details: rat hepatic microsomes 0.33 mg prot/ml; compound 10^-7 M; NADPH; 0-60 min
Experimental: as §1

[4] = Predicted metabolic stability, human hepatic microsomes; type: in vitro ADME; details: human hepatic microsomes 0.33 mg prot/ml; compound 10^-7 M; NADPH; 0-60 min
Experimental: as §1

[5] = system: confluent endothelial cells from bovine capillaries; experiment: Predicted crossing of the blood-brain barrier (BBB); type: in vitro ADME; design: key: high; intermediate; low; details: 20 μM in upper compartment; filter with bovine capillary endothelial cells; 10-60 min
Experimental: The substances are incubated at 20 μM in the upper compartment of a double container, the upper compartment being separated from the lower compartment either solely by a polycarbonate filter or by the same filter covered with confluent endothelial cells from bovine capillaries. Evaluation of the permeability kinetics is carried out by means of LC-MS-MS quantification of the unchanged substance in the lower compartment after 10, 20, 30, 40 and 60 minutes.

ERK1 [6] = biological target: T1, ERK1 (Homo sapiens, UniProt P27361); experiment: Biacore direct interaction with recombinant ERK1; type: binding
Excerpt: (§2) Various forms of non-phosphorylated recombinant ERK (ERK1 and ERK2) and of phosphorylated recombinant ERK (p-ERK1 and p-ERK2) are fixed separately on “chips” and studied in the Biacore® system. The direct interaction of the compound of Example 1 at different concentrations is studied. • 2. Results

ERK2 [7] = biological target: T2, ERK2 (Homo sapiens, UniProt P28482); experiment: Biacore direct interaction with recombinant ERK2; type: binding
Excerpt: as §2

ERK1 [8] = biological target: T1, ERK1; experiment: ERK1 phosphorylation ex vivo in pig brain tissues; type: biochemical; design: host or cells: recombinant protein added to pig brain tissue preparations; details: 3×10^-9 M
Excerpt: (§3) The various brain structures are isolated, treated and suspended in a medium without phosphate, after inactivation of the phosphatases of the tissues. The tissues are cleared of their own ERK and p-ERK and placed in the presence of specific recombinant forms of ERK1, ERK2, p-ERK1 and p-ERK2.
(§4) The phosphorylation capacities are studied in the presence and absence of the compound of Example 1 by means of antibodies that allow evaluation of non-phosphorylated and phosphorylated ERK1 and ERK2. • 2. Results

ERK2 [9] = biological target: T2, ERK2; experiment: ERK2 phosphorylation ex vivo in pig brain tissues; type: biochemical; design: host or cells: recombinant protein added to pig brain tissue preparations; details: 3×10^-9 M
Excerpt: as §3, §4

[10] = pig brain prefrontal cortex ex vivo

T2 sequence (P28482 whole entry, species assumed): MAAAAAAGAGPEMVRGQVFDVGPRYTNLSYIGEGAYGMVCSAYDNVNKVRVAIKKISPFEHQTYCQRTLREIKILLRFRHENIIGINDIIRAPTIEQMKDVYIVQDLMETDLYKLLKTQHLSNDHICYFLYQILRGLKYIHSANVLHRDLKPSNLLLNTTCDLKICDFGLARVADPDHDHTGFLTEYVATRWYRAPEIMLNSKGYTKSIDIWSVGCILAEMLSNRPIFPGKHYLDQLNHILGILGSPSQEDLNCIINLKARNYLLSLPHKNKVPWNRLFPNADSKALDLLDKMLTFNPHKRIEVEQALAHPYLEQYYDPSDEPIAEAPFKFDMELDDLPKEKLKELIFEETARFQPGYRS
T1 sequence (P27361 whole entry, species assumed): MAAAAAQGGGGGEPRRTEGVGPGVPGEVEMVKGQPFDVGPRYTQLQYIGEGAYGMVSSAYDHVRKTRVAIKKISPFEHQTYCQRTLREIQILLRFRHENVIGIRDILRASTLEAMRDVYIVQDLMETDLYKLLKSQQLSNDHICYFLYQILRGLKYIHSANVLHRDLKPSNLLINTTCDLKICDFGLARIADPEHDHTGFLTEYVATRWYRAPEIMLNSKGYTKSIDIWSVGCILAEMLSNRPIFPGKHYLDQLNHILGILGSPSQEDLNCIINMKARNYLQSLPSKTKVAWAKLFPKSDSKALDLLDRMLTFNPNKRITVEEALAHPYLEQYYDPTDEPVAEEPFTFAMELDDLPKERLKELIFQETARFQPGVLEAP

SMILES | amount of TH in LC section 1, relative to the mean value of the control group [1] | amount of TH in LC section 2, relative to the mean value of the control group [1] | amount of TH in LC section 3, relative to the mean value of the control group [1] | amount of TH in LC section 4, relative to the mean value of the control group [1] | amount of TH in LC section 5, relative to the mean value of the control group [1] | amount of TH in LC section 6, relative to the mean value of the control group [1] | amount of TH in LC section 7, relative to the mean value of the control group [1] | amount of TH in LC section 8, relative to the mean value of the control group [1] | % metabolic stability predicted using hepatic microsomes, Mouse [2] | % metabolic stability predicted using hepatic microsomes, Rat [3] | % metabolic stability predicted using hepatic microsomes, Human [4] | further results
O=C(Nc1cccnc1)Nn1ccc2ccccc21 [Example 1, N-(1H-indol-1-yl)-N′-(3-pyridyl)urea] | 66% | 85% | 74% | 64% | 45% | 40% | 8% | 2% | 78% | 78% | 72% | degree of crossing of the BBB (category) [5]: high; binding to ERK1 (ERK1 [6]; non-phosphorylated recombinant ERK1 on chip, different concentrations): binds strongly; binding to ERK1 when the corresponding phosphorylated ERK is added to the medium (ERK1 [6]; p-ERK1 added to the medium): inhibited; binding to ERK2 (ERK2 [7]; non-phosphorylated recombinant ERK2 on chip, different concentrations): binds strongly; binding to ERK2 when the corresponding phosphorylated ERK is added to the medium (ERK2 [7]; p-ERK2 added to the medium): inhibited; phosphorylation of ERK1 in the hippocampus (ERK1 [8]; pig brain hippocampus ex vivo): increases; phosphorylation of ERK1 in the prefrontal cortex (ERK1 [8]; [10]): increases; phosphorylation of ERK2 in the hippocampus (ERK2 [9]; pig brain hippocampus ex vivo): increases; phosphorylation of ERK2 in the prefrontal cortex (ERK2 [9]; [10]): increases; phosphorylation of ERK2 in the striatum (ERK2 [9]; pig brain striatum ex vivo): increases
O=C(Nc1cccnc1)NN1CCc2ccccc21 [Example 2, N-(2,3-dihydro-1H-indol-1-yl)-N′-(3-pyridyl)urea] | 63% | 77% | 64% | 57% | 34% | 15% | 8% | 2% | 85% | 55% | 98% | 
O=C(Nc1ccncc1)Nn1ccc2ccccc21 [Example 6, N-(1H-indol-1-yl)-N′-(4-pyridyl)urea] | 65% | 81% | 59% | 33% | 20% | 13% | 8% | 2% | 77% | 73% | 77% | 
O=C(Nc1ccncc1)Nn1ccc2cc(Cl)ccc21 [Example 13, N-(5-chloro-1H-indol-1-yl)-N′-(4-pyridyl)urea] |  |  |  |  |  |  |  |  | 84% | 89% | 82% | 
O=C(NCc1ccccn1)Nn1ccc2ccccc21 [Example 24, N-(1H-indol-1-yl)-N′-(2-pyridylmethyl)urea] | 74% | 78% | 68% | 45% | 29% | 19% | 5% | 7% | 72% | 69% | 67% | 
